Measured values as given in paper PMC12384620, “Hit-to-Lead Studies of Pyrazinylpiperazines against Visceral Leishmaniasis: Pharmacokinetic Profile and In Vivo Efficacy of Potent Compounds against Leishmania infantum” (ACS Pharmacology & Translational Science, 2025).

What was measured:
[1] = test system: L. infantum::tdTomato intracellular amastigotes; experiment: Synergism between 2 and Sb^III against intracellular L. infantum amastigotes; type: cell-based, Leishmania infantum; conditions: compounds tested separately, 72 h; read-out: IC50 against intracellular amastigotes of L. infantum
Experimental: Cells derived from the human monocytic strain THP-1 were cultured in complete Rowell Park Memorial Institute (RPMI)-1640 medium (supplemented with 10% fetal bovine serum, 100 U/mL penicillin, and 100 μg/mL streptomycin). Monocytes were differentiated into macrophages by the addition of 20 ng/mL phorbol myristate acetate (PMA). After 72 h, the macrophages (5 × 10^4), in black 96-well microtiter plates (Corning Incorporated, Corning, NY), were infected with Leishmania (Leishmania) infantum (MHOM/BR/1974/PP75) promastigotes expressing red fluorescence protein on the second day of the stationary phase (20 parasites per macrophage) for 4 h. […] To investigate the possibility of synergism between Sb^III and compound 2, […] different concentrations of these drugs were used (1.0, 0.5, 0.2, 0.1, and 0.05 μg/mL), the solutions of Sb^III and 2 being prepared and diluted the day of the assay. The compounds were tested separately and in combination. […] The EC50 values were determined by nonlinear regression using a Variable slope model (log(concentration) vs growth inhibition) with the GraphPadPrism v8.2.0 (CA, USA) software. By normalizing the data as a fractional response, it was possible to perform the calculation using a Bayesian model. The results were compared to each other to determine whether the combination of compounds has a synergistic, antagonistic or additive effect. Controls with uninfected cells, untreated infected cells, infected cells treated with amphotericin B at 0.25 μM (positive control) or DMSO 1% were used. Quadruplicates were run on the same plate, and the experiments were repeated at least once.

[2] = Metabolic stability in mouse liver microsomes; type: in vitro ADME; conditions: pH 7.4, MLM, with NADPH cofactor; for microsomal CLint at 5 μM: read-out: Clint, intrinsic clearance; for half-life at 5 μM: read-out: t1/2, microsomal half-life
Experimental: To a microcentrifuge tube was added 1 mg/mL Mouse Liver Microsome (MLM), a NADPH generating system consisting of 1 mM NADP+, 1.5 mM MgCl2, 3.5 mM glucose-6-phosphate and 0.5 U/mL glucose-6-phosphate dehydrogenase, and phosphate buffer (pH 7.4) in a sufficient amount for a total volume of […]. After a 15 min preincubation at 37 °C in a water bath, the enzymatic reactions were started by adding 2 μL of a […] stock solution of each compound to be assessed, reaching a final concentration of 5 μM in the tested compound. , The samples were further incubated at 37 °C under stirring (30 rpm) for predetermined periods (0, 15, 30, 45, and 60 min), and 500 μL chilled MeOH and 500 μL chilled acetonitrile were added before the samples were homogenized and left standing in an ice bath to accelerate protein precipitation. The resulting mixture was centrifugated at 13000 rpm for 15 min at 4 °C, the organic layer was extracted and 2 μL internal standard (clonazepam 5 μM) was added. Finally, the samples were filtered through a PVDF filter (Millex 0.22 μm x 13 mm) and analyzed by HPLC-PDA. ,

[3] = PAMPA gastrointestinal tract permeability; type: in vitro ADME; conditions: for Papp at 8 h, 0.5 mM: PAMPA-GI, read-out: GI Pe
Experimental: A 10 mM solution of each compound in DMSO was prepared and subsequently homogenized in a 5 mL flask with 4.75 mL PBS (pH 6.6) (10 mM). […] 180 μL of a PBS (pH 7.4)/DMSO (95:5) solution were then added to the wells of a 96-well receiver plate, and 5 μL of a L-α-phosphatidylcholine solution (20 mg/mL in dodecane) to the wells of a 96-well donor plate. After 5 min, 180 μL of the solutions containing each compound were added to the wells of the donor plate, in triplicate, and the donor plate was carefully placed over the receiver plate in a “sandwich-like” system, which was left stirring (50 rpm) for 8 h at rt in a sealed vessel containing 10 mL PBS (pH 7.4). Afterward, the donor plate was removed, and the content of the receiver plate was transferred to a UV reading plate, which was read using a microplate reader (SpectraMax 5 – Molecular Devices). A reference sample for the internal correction of the microplate reader was prepared using 180 μL of the PBS (pH 7.4)/DMSO (95:5) solution (adapted from refs and ). The optical density values obtained from the content of the receiver plate were compared with the ones obtained from readings performed with the initial solutions containing each compound, before their addition to the donor plate. […] The optical density values from the receptor plate were compared to those from experimental controls to determine the F a value for each compound, using Microsoft Excel.

[4] = test system: L. infantum; experiment: Antileishmanial activity against L. infantum amastigotes in THP-1 macrophages; type: cell-based; conditions: Leishmania infantum; growth of L. infantum in THP-1 macrophages, 72 h
Experimental: The in vitro anti-L. infantum activity (IC50) of each compound was evaluated on THP-1 cells (human leukemia monocytic cell line) infected with L. infantum promastigotes, and the in vitro cytotoxicity (CC50) was determined over the THP-1 cell line. The selectivity index (SI) was calculated as the ratio of the CC50 value determined in the cytotoxicity assay, divided by the IC50 value determined in the antileishmanial activity assay.
Cells derived from the human monocytic strain THP-1 were cultured in complete Rowell Park Memorial Institute (RPMI)-1640 medium (supplemented with 10% fetal bovine serum, 100 U/mL penicillin, and 100 μg/mL streptomycin). Monocytes were differentiated into macrophages by the addition of 20 ng/mL phorbol myristate acetate (PMA). After 72 h, the macrophages (5 × 10^4), in black 96-well microtiter plates (Corning Incorporated, Corning, NY), were infected with Leishmania (Leishmania) infantum (MHOM/BR/1974/PP75) promastigotes transfected with gene tdTomato, on the second day of the stationary phase (20 parasites per macrophage) for 4 h. […] The IC50 values were determined by nonlinear regression using a variable slope model (log(concentration) vs growth inhibition) with the GraphPadPrism v8.2.0 (CA, USA) software. Controls with uninfected cells, untreated infected cells, and infected cells treated with amphotericin B at 0.25 μM (positive control) or DMSO 1% were used. Quadruplicates were run on the same plate, and the experiments were repeated at least once.

[5] = test system: L. braziliensis; experiment: Inhibition of growth of L. braziliensis in THP-1 macrophages; type: cell-based; conditions: Leishmania braziliensis
Description: 1 In Vitro Antileishmanial Potency, Selectivity Index, and ADME Properties of Compounds 1 – 6 | column: L. braziliensis IC50 (μM)^b (SI)^b

[6] = PAMPA blood-brain barrier permeability; type: in vitro ADME; conditions: for Papp at 0.2 mg/mL: PAMPA-BBB, pH 7.4, read-out: BBB Pe; for BBB permeation class: PAMPA-BBB classification
Experimental: One mg of each compound was solubilized in ethanol (1 mL) in a 5 mL flask, and an additional 500 μL ethanol and 3.5 mL PBS buffer (pH 7.4) were added to this solution. […] 180 μL of a PBS (pH 7.4)/ethanol (70:30) solution were then added to the wells of a 96-well receiver plate, and 5 μL of a porcine brain lipid solution (20 mg/mL in dodecane) to the wells of a 96-well donor plate. […] Afterward, the donor plate was removed, and the content of the receiver plate was transferred to a UV reading plate, which was read using a microplate reader (SpectraMax 5 – Molecular Devices). A reference sample for the internal correction of the microplate reader was prepared using 180 μL of the PBS (pH 7.4)/ethanol (70:30) solution (adapted from ref ). The optical density values obtained from the content of the receiver plate were compared with the ones obtained from readings performed with the initial solutions containing each compound, before their addition to the donor plate. […] The optical density values for the experimental controls were used to determine the equation of the linear regression (optical density vs P e ), which allowed the determination of the P e value of each compound from the optical density values obtained from the receiver plate, using an in-house Microsoft Excel spreadsheet.

[7] = test system: L. infantum promastigotes; experiment: Flow cytometric cell cycle analysis (PI); type: cell-based, Leishmania infantum; conditions: 24 h, 0.5x, 1x, 2x IC50, PI
Experimental: Then, the cells were collected, washed twice with 1 × PBS, and fixed in 70% ethanol at 4 °C for 24 h. The fixed parasites were then washed with 1 × PBS and the pellet was treated with 500 μL of RNase A (20 mg/mL) and incubated at 37 °C for 1 h. Subsequently, the parasites were stained with 10 μg/mL propidium iodide (PI) in the dark for 20 min. Cell cycle distribution, determining the percentage of cells in G0, G1, S, and G2/M phases, was analyzed using an Accuri C5 BD flow cytometer. The histograms presented are representative of results obtained from three independent experiments.

[8] = test system: L. infantum::tdTomato; type: in vivo, mouse; conditions: 500 mg/kg/day i.p., 10 days
Experimental: BALB/c mice (male, 6 to 8 weeks old, 18 to 20 g) were inoculated intravenously (tail vein) with 2 × 10^7 late-log-phase L. infantum promastigotes from Li::tdTomato lines, and randomly assigned into one of the four treatment groups (six mice per group). After 7 days of infection, […] was administered intraperitoneally in a single dose 500 mg/kg/day meglumine antimoniate (Glucantime, Sanofi Medley), both groups treated with 2 received two daily intraperitoneal injections totaling either 50 mg/kg/day or 100 mg/kg/day of 2, and the control group was administered the vehicle solution. For the intraperitoneal injection, 2 was formulated as follows: a stock solution of 2 in DMSO (100 mg/mL) was prepared daily, and a solution of 70% PBS1X, 20% PEG 400 (Polyethylene Glycol 400, Sigma-Aldrich), 0.16% Tween 80 and 10% of 2 (from the stock solution) was prepared. The control group was also administered this solution, replacing 2 with 10% DMSO. All mice were euthanized 3 days after the end of the treatment, and the liver and spleen of each animal were collected.
The number of viable parasites in each organ was determined using a quantitative limiting dilution assay. Briefly, the organs were macerated using an Ultra-Turrax disperser (IKA-Werke GmbH & Co. KG., Staufen, Germany), and a tissue homogenate was obtained with 1 mL of M199 medium. Each tissue homogenate was sequentially diluted (10-fold) in 96-well flat-bottom microtiter black plates and incubated at 26 °C for 10 days. The wells containing motile promastigotes were identified with an inverted microscope (Axiovert 25, Zeiss), and the parasite burden was determined from the highest dilution at which promastigotes had grown after 10 days of incubation.

Row | Compound | IC50 [1] [nM] | microsomal CLint at 5 μM [2] [µL/min/mg] | half-life at 5 μM [2] [h] | Fa, fraction absorbed (GI) [3] [%] | Papp at 8 h, 0.5 mM [3] [×10⁻⁶ cm/s] | IC50 [4] [nM] | IC50 [5] [nM] | Papp at 0.2 mg/mL [6] [×10⁻⁶ cm/s] | BBB permeation class [6] | effect on cell cycle progression [7] | parasite burden in spleen and liver [8]
1 | [Sb+3] [Sb^III, reference compound] | 2400 ± 470 |  |  |  |  |  |  |  |  |  | 
2 | O=C(c1ccc2cc(O)ccc2c1)N1CCN(c2cnccn2)CC1 [Compound 5, (6-Hydroxynaphthalen-2-yl)(4-(pyrazin-2-yl)piperazin-1-yl)methanone] |  | 0.8 | 3.61 | 45.70 | 1.61 | 3300 ± 2700 | 2600 ± 200 | 0.96 |  |  | 
3 | COc1ccc(C(=O)N2CCN(c3cnccn3)CC2)cc1 [Compound 3, (4-Methoxyphenyl)(4-(pyrazin-2-yl)piperazin-1-yl)methanone] |  | 0.925 | 3.12 | 99.90 | 18.2 | 4500 ± 700 | 10100 ± 2800 | 2.21 | CNS± (CNS±: uncertain BBB permeation, 2.0 < P e (10^–6 cm/s) < 4.0) |  | 
4 | C[C@@H]1[C@H](O)[C@@H](C)/C=C/C=C/C=C/C=C/C=C/C=C/C=C/[C@H](O[C@@H]2O[C@H](C)[C@@H](O)[C@H](N)[C@@H]2O)C[C@@H]2O[C@](O)(C[C@@H](O)C[C@@H](O)[C@H](O)CC[C@@H](O)C[C@@H](O)CC(=O)O[C@H]1C)C[C@H](O)[C@H]2C(=O)O [AmB, Amphotericin B, reference compound] |  |  |  |  |  | 300 | 100 |  |  |  | 
5 | CC(C)NCC(O)COc1ccc(CC(N)=O)cc1 (stereo not drawn) [Atenolol, reference compound] |  |  |  | 1.70 |  |  |  |  |  |  | 
6 | O=C(c1cccc(O)c1O)N1CCN(c2cnccn2)CC1 [Compound 6, (2,3-Dihydroxyphenyl)(4-(pyrazin-2-yl)piperazin-1-yl)methanone] |  | 4.2 | 0.688 | 86.26 | 5.22 | 2800 ± 1100 | 200 ± 200 | 4.51 | CNS+ (CNS+: high BBB permeation, P e (10^–6 cm/s) > 4.0) |  | 
7 | Nc1ccc(C(=O)N2CCN(c3cnccn3)CC2)cn1 [Compound 4, (6-Aminopyridin-3-yl)(4-(pyrazin-2-yl)piperazin-1-yl)methanone] |  | 0.675 | 4.28 | 99.91 | 18.4 | 5100 ± 2100 | 11900 ± 1100 | 1.02 |  |  | 
8 | CCCCCCCCCCCCCCCCOP(=O)([O-])OCC[N+](C)(C)C [Miltefosine, miltefosine, reference compound] |  |  |  |  |  |  |  |  |  | same pattern of cell cycle arrest | 
9 | meglumine antimoniate [reference compound] |  |  |  |  |  |  |  |  |  |  | almost completely eradicated
